1 compound from publication PMC5478727, “A Novel Small Molecule GDNF Receptor RET Agonist, BT13, Promotes Neurite Growth from Sensory Neurons in Vitro and Attenuates Experimental Neuropathy in the Rat” (Frontiers in Pharmacology, 2017) can be followed below.

Data set [1] deals with CYP1A2 (Homo sapiens, UniProt P05177). Kind of data set: CYP inhibition, fluorescent assay. As to conditions: read-out: Inhibition of CYP isoforms (IC50), CYP1A2. The class given is biochemical.
In data set [2] the test system is TrkA. Kind of data set: TrkA phosphorylation assay in MG87TrkA cells. As to conditions: BT13 10–100 μM, NGF positive control. The data set is classed as cell-based. The method, then: (§1) MG87RET, MG87TrkA, or MG87TrkB were plated on 35 mm tissue culture dishes 1–2 days before the experiment to achieve 90–95% of confluency of the cells at the day of stimulation with tested substances. If necessary, cells were transfected with 4 μg/well of GFRα1-, GFRα3-, or green fluorescent protein (GFP)-expressing plasmid using Lipofectamine 2000 (Invitrogen) for DNA delivery as described by manufacturer. Before the experiment cells were starved in serum-free DMEM containing 15 mM HEPES, pH 7.2 and 1% DMSO for 4 h and stimulated with BT13 or neurotrophic factors. Then cells were washed once with ice-cold PBS containing 1 mM Na3VO4 and 1 mM NaF and lysed on ice in 1 ml per well of RIPA-modified buffer (50 mM Tris-HCl, pH 7.4, 150 mM NaCl, 1 mM EDTA, 1% NP-40, 1% TX-100, 10% glycerol, EDTA-free protease inhibitor cocktail (Roche), 1 mM Na3VO4, 2.5 mg/ml of sodium deoxycholate, 1 mM NaF). Plates were incubated at +4°C on the horizontal shaker for 30 min with vigorous shaking. Afterwards, 80–100 μl aliquot was taken from each well to prepare whole cell lysates. This aliquot was mixed with equal volume of 2x Laemmli loading buffer (4% SDS, 20% glycerol, 10% 2-mercaptoethanol, 0.004% bromphenol blue, 0.125 M Tris HCl, pH 6.8) and boiled for 10 min at 100°C. Remaining cell lysates were used for immunoprecipitation of RET or Trk receptors. […]

Data set [3] has as its target neurokinin receptor NK3 (Homo sapiens, UniProt P29371). Kind of data set: CEREP NK3 (h) (antagonist radioligand). The class given is binding. The conditions noted are these: read-out: Percentage of inhibition/potentiation from control.
In data set [4] the target is T1, hERG (human Ether-à-go-go-related gene) (Homo sapiens, UniProt Q12809).
T1 construct: host or cells: HEK293
The experiment in a line: hERG competition assay with [3H]-astemizole. The class given is binding. As to conditions: competition with [3H]-astemizole; membranes of HEK293 cells; read-out: hERG inhibition (Ki). Background: hERG is a cardiac potassium channel; its block is linked to QT prolongation.

Data set [5] deals with dopamine receptor D2L (Homo sapiens, UniProt P14416). The experiment in a line: CEREP D2L (h) (antagonist radioligand). The class given is binding. The conditions noted are these: BT13 1 μM; Cat. No. 1405; average of duplicate; read-out: Percentage of inhibition/potentiation from control.
Data set [6] deals with T2, RET (Homo sapiens, UniProt P07949).
T2 construct: full-length human RET (long isoform) in pCR3.1; expressed in transfected cells; host or cells: MG87RET murine fibroblasts
Kind of data set: RET phosphorylation assay in MG87RET fibroblasts (GFRα3/RET and GFP/RET). The conditions noted are these: 25–50 μM; in the presence and absence of GFRα3 co-receptor. The class given is cell-based, murine.

Data set [7] has as its system Akt and Erk phosphorylation in MG87TrkA. The experiment in a line: Erk1/2 and Akt phosphorylation assay in MG87TrkA cells. The data set is classed as cell-based, murine. As to conditions: BT13 10–100 μM, NGF positive control. As to the method: as §1
Data set [8] concerns the target T3, GFRα3/RET (Homo sapiens, UniProt P07949).
T3 construct: full-length human RET (long isoform) in pCR3.1; expressed in transfected cells; host or cells: MG87 murine fibroblasts (MG87RET + PathDetect Elk-1 + GFRα3)
The experiment in a line: Luciferase reporter-gene assay (PathDetect Elk-1), GFRα3/RET reporter cells. The conditions noted are these: GFRα3/RET reporter cell line. The data set is classed as cell-based. (A reporter such as luciferase makes a cellular process visible.)

The target in data set [9] is T4, CYP2C19 (Homo sapiens, UniProt P33261).
T4 construct: Cyathus Exquirere (contract laboratory)
The experiment in a line: CYP inhibition, fluorescent assay. As to conditions: read-out: Inhibition of CYP isoforms (IC50), CYP2C19. The data set is classed as biochemical.

A value given as a limit tells only on which side of the number the result lay.

For orientation: IC50 means the point on the concentration scale where inhibition reaches its midpoint. What is called Ki is the equilibrium dissociation constant of an inhibitor or competing ligand from its target. For orientation: EC50 means the concentration giving half of the maximal effect.

T3 sequence (P07949 29-1114): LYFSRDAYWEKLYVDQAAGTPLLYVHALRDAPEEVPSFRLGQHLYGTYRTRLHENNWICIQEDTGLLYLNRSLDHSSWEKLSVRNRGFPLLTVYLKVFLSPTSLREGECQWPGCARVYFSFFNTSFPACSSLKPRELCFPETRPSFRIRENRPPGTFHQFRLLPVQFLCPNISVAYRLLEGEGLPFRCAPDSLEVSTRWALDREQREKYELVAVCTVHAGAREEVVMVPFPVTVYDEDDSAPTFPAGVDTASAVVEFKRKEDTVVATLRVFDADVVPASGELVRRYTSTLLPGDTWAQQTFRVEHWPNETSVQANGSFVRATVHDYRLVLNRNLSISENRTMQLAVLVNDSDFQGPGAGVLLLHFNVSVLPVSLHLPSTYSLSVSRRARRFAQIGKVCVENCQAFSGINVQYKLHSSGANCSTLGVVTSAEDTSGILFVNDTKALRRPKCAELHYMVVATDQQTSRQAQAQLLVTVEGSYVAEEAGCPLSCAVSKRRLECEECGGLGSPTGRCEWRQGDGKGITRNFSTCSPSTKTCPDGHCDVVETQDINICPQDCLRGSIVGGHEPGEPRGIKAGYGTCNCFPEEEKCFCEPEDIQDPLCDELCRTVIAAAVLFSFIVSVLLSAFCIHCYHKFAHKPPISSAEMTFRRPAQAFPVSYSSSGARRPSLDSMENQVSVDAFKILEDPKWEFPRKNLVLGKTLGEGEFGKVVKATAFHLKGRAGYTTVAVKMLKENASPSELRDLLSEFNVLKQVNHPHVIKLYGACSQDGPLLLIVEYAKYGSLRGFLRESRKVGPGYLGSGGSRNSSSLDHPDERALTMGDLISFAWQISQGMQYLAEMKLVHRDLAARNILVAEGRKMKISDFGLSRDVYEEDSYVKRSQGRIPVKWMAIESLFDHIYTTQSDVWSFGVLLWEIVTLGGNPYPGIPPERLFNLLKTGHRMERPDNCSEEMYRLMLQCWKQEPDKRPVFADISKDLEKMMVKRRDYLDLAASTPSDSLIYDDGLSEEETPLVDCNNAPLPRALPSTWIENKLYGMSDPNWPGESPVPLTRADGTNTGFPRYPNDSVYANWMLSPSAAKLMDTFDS
T1 sequence (Q12809 whole entry): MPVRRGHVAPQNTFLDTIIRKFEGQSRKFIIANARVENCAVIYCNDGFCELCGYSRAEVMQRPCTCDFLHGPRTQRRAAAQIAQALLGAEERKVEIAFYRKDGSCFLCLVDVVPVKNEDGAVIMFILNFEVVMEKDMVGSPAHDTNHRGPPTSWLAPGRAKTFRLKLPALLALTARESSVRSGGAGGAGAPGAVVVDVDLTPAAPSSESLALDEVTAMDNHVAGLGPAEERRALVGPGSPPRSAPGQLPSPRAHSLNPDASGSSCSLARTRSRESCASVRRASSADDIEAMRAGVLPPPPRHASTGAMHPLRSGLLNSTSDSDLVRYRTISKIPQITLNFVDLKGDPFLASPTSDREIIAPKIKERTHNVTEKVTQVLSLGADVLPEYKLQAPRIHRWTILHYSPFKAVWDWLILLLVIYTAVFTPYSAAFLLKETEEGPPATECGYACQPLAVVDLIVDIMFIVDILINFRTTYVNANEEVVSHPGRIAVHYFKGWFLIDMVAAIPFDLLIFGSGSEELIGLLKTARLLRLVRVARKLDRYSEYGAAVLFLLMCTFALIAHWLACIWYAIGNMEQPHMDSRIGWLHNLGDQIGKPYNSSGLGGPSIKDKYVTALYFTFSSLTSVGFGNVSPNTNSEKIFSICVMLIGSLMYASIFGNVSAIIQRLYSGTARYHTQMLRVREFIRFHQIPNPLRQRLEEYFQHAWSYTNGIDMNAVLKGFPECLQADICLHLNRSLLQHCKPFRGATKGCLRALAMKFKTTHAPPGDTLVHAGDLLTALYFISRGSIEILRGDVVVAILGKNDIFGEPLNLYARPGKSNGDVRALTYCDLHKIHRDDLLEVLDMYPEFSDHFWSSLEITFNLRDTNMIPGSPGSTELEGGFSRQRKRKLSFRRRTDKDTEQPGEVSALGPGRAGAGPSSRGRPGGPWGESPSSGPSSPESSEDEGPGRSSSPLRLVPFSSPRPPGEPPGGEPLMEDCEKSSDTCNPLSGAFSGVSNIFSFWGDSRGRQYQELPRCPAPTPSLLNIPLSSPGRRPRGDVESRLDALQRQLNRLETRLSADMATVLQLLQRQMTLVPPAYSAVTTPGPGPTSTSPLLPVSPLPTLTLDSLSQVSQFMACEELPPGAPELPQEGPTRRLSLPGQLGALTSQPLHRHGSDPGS
Chain of dopamine receptor D2L (P14416 whole entry): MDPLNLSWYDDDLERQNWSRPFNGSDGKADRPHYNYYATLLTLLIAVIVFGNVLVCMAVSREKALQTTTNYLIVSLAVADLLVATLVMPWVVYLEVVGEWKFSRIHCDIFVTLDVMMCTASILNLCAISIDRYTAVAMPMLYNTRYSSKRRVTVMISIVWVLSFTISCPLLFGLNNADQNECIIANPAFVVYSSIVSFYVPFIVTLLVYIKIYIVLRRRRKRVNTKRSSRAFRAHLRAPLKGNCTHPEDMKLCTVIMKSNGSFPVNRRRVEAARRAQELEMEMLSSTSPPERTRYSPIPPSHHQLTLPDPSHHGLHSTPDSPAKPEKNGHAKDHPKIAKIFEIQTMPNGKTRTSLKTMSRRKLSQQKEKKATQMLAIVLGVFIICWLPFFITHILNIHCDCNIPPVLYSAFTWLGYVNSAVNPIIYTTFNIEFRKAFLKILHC
Chain of CYP1A2 (P05177 whole entry, canonical isoform): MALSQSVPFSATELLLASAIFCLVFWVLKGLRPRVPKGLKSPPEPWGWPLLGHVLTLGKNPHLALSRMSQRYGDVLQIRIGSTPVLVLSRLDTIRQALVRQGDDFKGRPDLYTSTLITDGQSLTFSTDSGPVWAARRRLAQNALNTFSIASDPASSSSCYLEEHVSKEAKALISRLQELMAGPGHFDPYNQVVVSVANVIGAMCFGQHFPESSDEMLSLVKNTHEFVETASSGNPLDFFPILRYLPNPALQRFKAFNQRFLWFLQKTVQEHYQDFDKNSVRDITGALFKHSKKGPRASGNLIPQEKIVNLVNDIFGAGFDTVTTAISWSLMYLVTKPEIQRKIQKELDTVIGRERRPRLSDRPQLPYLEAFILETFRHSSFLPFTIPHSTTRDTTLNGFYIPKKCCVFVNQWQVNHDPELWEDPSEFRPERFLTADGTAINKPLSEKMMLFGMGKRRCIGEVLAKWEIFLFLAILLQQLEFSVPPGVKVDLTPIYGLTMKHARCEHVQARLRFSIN
T2 sequence (P07949 29-1114): as the sequence (P07949 29-1114) above
Chain of neurokinin receptor NK3 (P29371 whole entry): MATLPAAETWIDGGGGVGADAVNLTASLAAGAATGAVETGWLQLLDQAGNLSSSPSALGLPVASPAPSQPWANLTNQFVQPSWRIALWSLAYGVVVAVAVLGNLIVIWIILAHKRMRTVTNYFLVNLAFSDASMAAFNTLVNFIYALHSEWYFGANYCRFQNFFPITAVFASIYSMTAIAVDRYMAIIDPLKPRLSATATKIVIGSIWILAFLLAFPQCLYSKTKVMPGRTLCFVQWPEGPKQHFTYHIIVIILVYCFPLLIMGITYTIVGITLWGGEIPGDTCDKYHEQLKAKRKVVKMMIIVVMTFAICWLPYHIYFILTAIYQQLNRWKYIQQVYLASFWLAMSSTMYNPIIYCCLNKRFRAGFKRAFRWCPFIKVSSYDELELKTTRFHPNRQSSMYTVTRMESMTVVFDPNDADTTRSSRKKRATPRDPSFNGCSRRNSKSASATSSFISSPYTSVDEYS
T4 sequence (P33261 whole entry): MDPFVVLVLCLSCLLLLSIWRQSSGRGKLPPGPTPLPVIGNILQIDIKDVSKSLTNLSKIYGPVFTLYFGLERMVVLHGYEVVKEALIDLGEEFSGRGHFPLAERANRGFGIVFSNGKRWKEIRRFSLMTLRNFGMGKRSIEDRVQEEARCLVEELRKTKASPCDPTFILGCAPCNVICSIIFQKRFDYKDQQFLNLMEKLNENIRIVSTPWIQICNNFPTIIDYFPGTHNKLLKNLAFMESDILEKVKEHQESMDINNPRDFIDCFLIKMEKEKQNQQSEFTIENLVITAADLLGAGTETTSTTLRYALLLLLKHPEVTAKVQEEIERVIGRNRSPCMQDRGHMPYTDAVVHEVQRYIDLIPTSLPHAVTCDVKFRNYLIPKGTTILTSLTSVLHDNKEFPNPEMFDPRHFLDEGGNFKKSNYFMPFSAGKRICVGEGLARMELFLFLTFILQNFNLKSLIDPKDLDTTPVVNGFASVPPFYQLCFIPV

`CCN(CC)S(=O)(=O)c1ccc(OC)c(N2CCN(C(=O)c3ccc(F)cc3C(F)(F)F)CC2)c1` [BT13]: the concentration for half-maximal inhibition (IC50) in data set [1] and in data set [9] was above 100 µM in each case. In addition, in data set [2], the “TrkA phosphorylation, Western blotting” value is listed as “did not produce any detectable increase”. Further, the values for the inhibition at 1 µM in [3] and in [5] were 0% and -3%, respectively. Besides, the Ki in data set [4] is above 30 µM. In data set [6], the “RET phosphorylation (170 kD mature glycosylated form), Western blotting” value is given as “elicited phosphorylation”. Moreover, the “Akt and Erk phosphorylation” value in data set [7] was “no Akt or Erk phosphorylation was observed”. The “efficacy, fold induction of luciferase above baseline” value in [8] worked out at 8.9 fold. The EC50 in data set [8] (0.1–50 μM, read-out: EC50, luciferase activation) is 20.5 µM.
